This is an account of results in PMC8980233, “Differentiating the Neuropharmacological Properties of Nicotinic Acetylcholine Receptor-Activating Alkaloids” (Frontiers in Pharmacology, 2022).

Counter-ions that a name gives are not always drawn.

Data set [1] concerns norepinephrine release from hippocampal synaptosomes. As to the kind of experiment: In vitro [3H]norepinephrine release from crude hippocampal synaptosomes. The class given is biochemical, rat. The protocol: In vitro neurotransmitter assays using crude synaptosome preparations were conducted by Gifford Biosciences Limited (Birmingham, UK) based on the previously described protocols ([Clarke and Reuben, 1996]; [Gifford et al., 2000]). In brief, male Sprague Dawley rats (200–225 g) were terminated by cervical dislocation followed by decapitation. The striatums or hippocampi were dissected and homogenized in ice-cold 0.32 M sucrose using a Dounce homogenizer. The homogenates were centrifuged at 100 x g for 5 min to pellet cell debris. The supernatants were collected and centrifuged at 17,000 x g for 10 min at 4°C to pellet crude synaptosomes. The pellets were resuspended in 5 ml Krebs buffer, pH 7.4 (in mM (pH 7.4): 120 NaCl, 3.3 KCl, 1.2 MgSO4, 1.3 CaCl2, 1.2 K2HPO4, 25 HEPES, 11 glucose, 0.01 ascorbic acid, 0.025 pargyline, and 0.1% BSA containing 2 μCi/ml [^3H]norepinephrine for hippocampal synaptosomes or 1 μCi/ml [^3H]dopamine for striatal synaptosomes and incubated for 15 min at 35°C with gentle shaking.
(§1) The [^3H]norepinephrine- or [^3H]dopamine-treated crude synaptosomes were loaded onto closed filter chambers containing Whatman® Grade GF/C Glass Microfiber filters (Sigma-Aldrich, Merck KGaA, Darmstadt, Germany) and placed in a superfusion system. Preoxygenated Krebs buffer was perfused through the chambers at a rate of 1 ml/min at 37 °C using an 8-channel peristaltic pump. To ensure an even flow over the synaptosomal bed, trapped air bubbles were removed from the filters prior to collection of the fractions. After a superfusion period of 40 min, three basal fractions (1.5 ml/fraction) were collected first, followed by three fractions (1.5 ml/fraction) containing the test compound. Two additional fractions were collected in the presence of 30 mM KCl to depolarize the synaptosomes. A 0.4-ml aliquot of each fraction was then transferred to a counting plate, and a scintillation cocktail was added to measure the radioactivity using a Wallac® TriLux 1450 MicroBeta counter (PerkinElmer Life Sciences, Zaventem, Belgium). Once all fractions were collected, the filters holding the crude synaptosome samples were removed and dried overnight at room temperature. On the following day, the scintillation cocktail was added and the filters were counted to determine residual radioactivity.
(§2) Compound-evoked release of neurotransmitters was calculated by subtracting the counts per minute (CPM) in the two basal fractions collected immediately prior to compound addition from those in the two fractions collected immediately following compound addition. The compound-evoked release was then expressed as a percentage of the basal release from that chamber. Potassium-evoked release was calculated by subtracting the CPM in the fraction immediately prior to KCl addition from the CPM in the […] immediately following potassium addition. Stimulated release was calculated as the percentage of basal release for that chamber. The increase in stimulated release above the baseline (no compound) release for that experimental run was determined, and the latter values were plotted on the graphs. Dose–response curves were determined using non-linear curve fitting in Prism (GraphPad Software, Inc, San Diego, CA, United States). All experiments were repeated at least three times.

The test system of data set [2] is dopamine release from striatal synaptosomes. The data set can be described thus: In vitro [3H]dopamine release from crude striatal synaptosomes. The data set is classed as biochemical, rat. The settings on record: for EC50: striatal synaptosomes. As for the experimental part: In brief, male Sprague Dawley rats (200–225 g) were terminated by cervical dislocation followed by decapitation. The striatums or hippocampi were dissected and homogenized in ice-cold 0.32 M sucrose using a Dounce homogenizer. The homogenates were centrifuged at 100 x g for 5 min to pellet cell debris. The supernatants were collected and centrifuged at 17,000 x g for 10 min at 4°C to pellet crude synaptosomes.
as §1, with “Preoxygenated Krebs buffer was perfused through the chambers at a rate of 1 ml/min at 37 °C using an 8-channel peristaltic pump.” left out, “A 0.4-ml aliquot of each fraction was then transferred to a counting plate, and a scintillation cocktail was added to measure the radioactivity using a Wallac® TriLux 1450 MicroBeta counter (PerkinElmer Life Sciences, Zaventem, Belgium).” left out
as §2

For a further data set, the system named is C57Bl/6 mice. As to the kind of experiment: Tolerability test (body weight, body temperature, passive signs, manipulation responses). The conditions noted are these: for tolerability: highest dose 10 mg/kg i.p.; for BT (°C) naïve / Manipulations naïve / Passive naïve: baseline; for BW Day 1 / BW Day 2: mean ± SD. The protocol: In brief, mice were single-housed prior to the test and evaluated for baseline body weight, body temperature, and other parameters. […] On day 1, the mice were i. p. injected with saline (vehicle) or a test compound at 10 ml/kg body weight. Then, body temperature was measured at 15 min, 4 h, and 24 h and body weight on days 1 and 2. Neurological and motor parameters were evaluated at 15 min, 2 h, and 4 h after administration. The list of parameters is provided in Supplementary Figure S1 in Supplementary Material S1.
In addition, within 5 min after the 15-min observation period, mice were placed in open-field chambers for 30 min to determine their general motor activity (distance traveled), ambulatory time, and number of rears. The open-field chambers were made of Plexiglas (27.3 × 27.3 × 20.3 cm; Med Associates Inc, St Albans, VT, United States) surrounded by infrared photobeam sources (16 × 16 × 16 beams). Horizontal activity (distance and time traveled) and vertical activity (number and frequency of rears) were measured by consecutive beam breaks. At the end of each open-field test session, the chambers were thoroughly cleaned with NOLVASAN® solution (Zoetis Services LLC, Parsippany, NJ, United States). Four mice were used per treatment condition. Mice were terminated after completion of the last tolerability observation.
All compounds were diluted in saline, and the pH was adjusted to approximately 7.0 with HCl or NaOH on the day of the experiment. […] The doses were calculated based on the free base molecular weight of the compounds.
For the tolerability tests, passive signs and manipulation responses were analyzed for effects of the treatment by the Kruskal–Wallis test. Body temperature and body weight data were analyzed by two-way repeated measures analysis of variance (ANOVA). The total distance and time traveled and number and frequency of rears in the open-field activity test were analyzed by one-way ANOVA, followed by the Tukey post-hoc test. For the analyses of the zebrafish NTT data, one-way ANOVA was used, followed by Dunnett’s multiple comparison test, if it passed the Shapiro-Wilk normality test. […] An effect was considered significant if p < 0.05. The half maximal effective concentration (EC50) and half-maximal inhibitory concentration (IC50) for the receptor pharmacology and neurotransmitter release assay were determined by using nonlinear regression analysis. Statistical analyses were conducted using GraphPad Prism.

The test system of data set [3] is zebrafish (Danio rerio; strain AB). The data set can be described thus: Zebrafish novel tank test (NTT). The protocol: Adult male and female wild-type zebrafish were treated with the compounds for 20 min in a final volume of 50 ml in a 250-ml treatment beaker one fish at a time. The fish were briefly rinsed in fresh system water, and then immediately transferred to a trapezoidal tank (14.6 cm height x 5.5 cm width x 27.9 cm top length and x 23.6 cm bottom length) filled with 1.5 L system water. The behavior of the fish was monitored for the next 5 min by using the Noldus EthoVision XT system (Wageningen, Netherlands), with the camera placed approximately 1 m from the test tank. The part of the tank filled with water (11.5 cm height) was virtually divided into top, center, and bottom of equal heights (approximately 3.8 cm per segment) for the analysis. The average time spent at the top and bottom portions of the tank was analyzed to determine the anxiety-like behavior of fish. The average total distance travelled and freezing time were calculated to determine the effects of the compounds on the general behavior of fish. Freezing was defined by a complete cessation of movement except for gills and eyes ([Kalueff et al., 2013]). A minimum of 12 fish (6 females and 6 males) per condition were used for the study. The experimenter was blind to the test conditions.
If not, the dose was reduced until no obvious signs of tolerability problems were observed. […] The concentrations were calculated based on the free base molecular weight. Buspirone—a clinical anxiolytic drug used acutely and chronically to investigate the change in the anxiety-like behavior ([Maximino, et al., 2011]; [Maximino, et al., 2013])—was included as a positive control.

For `O=C(c1ccc(Cl)o1)N1CC2CNCC2C1` (stereo not drawn) [AZD1446, 3-(5-chloro-2-furoyl)-3,7-diazabicyclo[3.3.0]octane], the “change in norepinephrine release” value in data set [1] is “negligible change”. Also, the EC50 in data set [2] came to 8.4 µM. Also, the tolerability result in the data set with C57Bl/6 mice is reported as “well tolerated”.
Regarding `O=C(N[C@H]1CN2CCC1CC2)c1ccc(Cl)cc1` [PNU282987], in data set [1], the “change in norepinephrine release” value was “negligible change”. Further, in data set [2] (at higher concentrations), the dopamine release is listed as 20–30%. Also, in the data set on C57Bl/6 mice (1 mg/kg group), the “BT (°C) naïve” value amounted to 36.48 ± 0.38 °C, the “Manipulations naïve” value was 2.00 ± 1.63 and the “Passive naïve” value is on record as 0.25 ± 0.50. Besides, in the data set on C57Bl/6 mice (1 mg/kg i.p.), the “BT (°C) 15min” value worked out at 38.13 ± 0.15 °C, the “BT (°C) 4hr” value amounted to 36.60 ± 0.18 °C, the “BT (°C) 24hr” value is 36.85 ± 0.66 °C and the “Manipulations 15min” value stood at 1.25 ± 1.26. In the data set with C57Bl/6 mice (1 mg/kg i.p.), the “Manipulations 2hr” value is recorded as 0.75 ± 0.50, the “Manipulations 4hr” value was determined as 0.75 ± 0.96, the “Passive 15min” value is reported as 0.50 ± 0.58 and the “Passive 2hr” value came to 0.00 ± 0.00. In addition, in the data set on C57Bl/6 mice (1 mg/kg i.p.), the “Passive 4hr” value was determined as 0.00 ± 0.00, the “BW Day 1” value is on record as 24.03 ± 2.46 and the “BW Day 2” value amounted to 23.78 ± 2.61. Also, in the data set with C57Bl/6 mice (3 mg/kg group), the “BT (°C) naïve” value was determined as 36.50 ± 0.24 °C, the “Manipulations naïve” value is recorded as 0.75 ± 0.96 and the “Passive naïve” value was determined as 0.25 ± 0.50. In the data set with C57Bl/6 mice (3 mg/kg i.p.), the “BT (°C) 15min” value stood at 37.85 ± 0.54 °C, the “BT (°C) 4hr” value was 36.63 ± 0.21 °C, the “BT (°C) 24hr” value was found to be 36.40 ± 0.12 °C and the “Manipulations 15min” value is listed as 0.75 ± 0.96. In addition, in the data set on C57Bl/6 mice (3 mg/kg i.p.), the “Manipulations 2hr” value is 0.50 ± 0.58, the “Manipulations 4hr” value is 0.25 ± 0.50, the “Passive 15min” value was determined as 0.50 ± 0.58 and the “Passive 2hr” value came out at 0.00 ± 0.00. In the data set with C57Bl/6 mice (3 mg/kg i.p.), the “Passive 4hr” value came out at 0.00 ± 0.00, the “BW Day 1” value is 23.38 ± 0.54 and the “BW Day 2” value is on record as 23.47 ± 0.57. Further, in the data set on C57Bl/6 mice (10 mg/kg group), the “BT (°C) naïve” value is 36.73 ± 1.13 °C, the “Manipulations naïve” value worked out at 1.25 ± 0.96 and the “Passive naïve” value was 0.25 ± 0.50. For the same compound, in the data set on C57Bl/6 mice (10 mg/kg i.p.), the “BT (°C) 15min” value was 37.73 ± 0.46 °C, the “BT (°C) 4hr” value was found to be 36.83 ± 0.59 °C, the “BT (°C) 24hr” value is 36.10 ± 0.52 °C and the “Manipulations 15min” value was found to be 0.50 ± 0.58. Also, in the data set with C57Bl/6 mice (10 mg/kg i.p.), the “Manipulations 2hr” value came out at 0.25 ± 0.50, the “Manipulations 4hr” value amounted to 0.50 ± 0.58, the “Passive 15min” value is listed as 0.00 ± 0.00 and the “Passive 2hr” value is given as 0.00 ± 0.00. In addition, in the data set with C57Bl/6 mice (10 mg/kg i.p.), the “Passive 4hr” value stood at 0.00 ± 0.00, the “BW Day 1” value was determined as 23.62 ± 1.10 and the “BW Day 2” value is listed as 22.94 ± 1.25. For the same compound, the tolerability result in the data set with C57Bl/6 mice is listed as “well tolerated”.
With `CC(=O)OCC[N+](C)(C)C` [acetylcholine], the EC50 in data set [1] (hippocampal synaptosomes) was determined as 13.5 µM; in data set [2], 0.27 µM.
Consider `O=C1CC2(CCCC2)CC(=O)N1CCCCN1CCN(c2ncccn2)CC1` [buspirone, buspirone hydrochloride], for which, in data set [3] (100 mg/L), the freezing time result is on record as “increased” and the total distance traveled result is recorded as “decreased”. In addition, the “time spent at the top” value in data set [3] (all three doses tested (10, 30, and 100 mg/L)) is given as “increased the time spent at the top”. In data set [3] (middle two doses (10 and 30 mg/L)), the “time spent at the bottom” value is “reduced the time spent at the bottom”.

The EC50 is the midpoint of the concentration-response curve. Higher therefore signals a need for much substance.
